Assay [1] concerns the target T1, AKT Kinase-NanoLuc fusion in HEK-293 cells (Homo sapiens, UniProt P31749).
T1 construct: host or cells: HEK-293
Briefly: NanoBRET target engagement assay in transfected HEK-293 cells, AKT. The assay is classed as cell-based. The following applies: Table 28, NanoBRET, HEK-293 cells; read-out: AKT1 (Cellular) IC50. An excerpt:
The NanoBRET™ assay measures kinase engagement in real time in the context of the intact cell. The assay uses a Kinase-NanoLuc® fusion vector expressing a kinase protein to which a luciferase tag has been added, a cell-permeant fluorescent NanoBRET™ tracer, a NanoLuc® substrate, and an extracellular NanoLuc® inhibitor. Upon expression of the luciferase-tagged kinase, cells will produce a strong BRET signal only in the presence of the NanoBRET™ tracer. The extracellular NanoLuc® inhibitor ensures that the BRET signal observed emanates only from live cells. Because the BRET signal has tight distance constraints, addition of the test compound will decrease the BRET signal if the compound competes with the NanoBRET™ tracer for binding to the kinase domain. Under the appropriate tracer conditions established by the manufacturer, quantitative intracellular affinity and relative potency can then be determined using Mass Action model equations.
HEK-293 cells were purchased from ATCC. FuGENEHD Transfection Reagent, Kinase-NanoLuc® fusion plasmids, Transfection Carrier DNA, NanoBRET™ Tracers and dilution buffer, NanoBRET™ Nano-Glo Substrate, Extracellular NanoLuc® Inhibitor were obtained from Promega.
Assays were conducted following Promega assay protocol with some modifications as described further below. HEK-293 Cells were transiently transfected with Kinase-NanoLuc® Fusion Vector DNA by FuGENE HD Transfection Reagent. Test compounds were delivered into 384 well assay plate by Echo 550 (Labcyte Inc, Sunnyvale, CA). Transfected cells were harvested and mixed with NanoBRET™ Tracer Reagent and dispensed into 384 well plates and incubated at 37° C. in 5% CO2 cell culture incubator for 1 hour. The NanoBRET™ Nano-Glo Substrate plus Extracellular NanoLuc® Inhibitor Solution were added into the wells of the assay plate and incubated for 2-3 minutes at room temperature. The donor emission wavelength (460 nm) and acceptor emission wavelength (600 nm) were measured in the EnVision plate reader. The BRET Ratios were calculated. BRET Ratio=[(Acceptor sample÷Donor sample)−(Acceptor no-tracer control÷Donor no-tracer control)]. The IC50 values of compounds were calculated with Prism GraphPad program.
• 1. Transient Transfection of HEK-293 Cells NanoLuc® Fusion Vector DNA • 1). Cultivate HEK-293 cells (70-80% confluence) appropriately prior to assay. Trypsinize and collect HEK-293 cells. • 2). Prepare lipid: DNA complexes as follows: • a. Prepare a […] solution of DNA in Opti-MEM™ without serum that consists of the following ratios of carrier DNA and DNA encoding NanoLuc® fusion. 9.0 µg/mL of Transfection Carrier DNA, […] of NanoLuc® fusion vector DNA and 1 mL of Opti-MEM™ without phenol red. Mix thoroughly. • b. Add 30 μl of FuGENE HD Transfection Reagent into each milliliter of DNA mixture to form lipid: DNA complex. • c. Mix by inversion 10 times. • d. Incubate at ambient temperature for 20 minutes to allow complexes to form. • 3). In a sterile, conical tube, mix 1 part of lipid: DNA complex with 20 parts of HEK-293 cells in suspension. Mix gently by inversion 5 times. • 4). Dispense cells+lipid: DNA complex into a sterile tissue culture dish and incubate for 22-24 hours. • 2. Addition of Test Compounds (dry plate shooting): Each test compound is delivered from the compound source plate to the wells of 384-well white NBS plate by Echo 550. • 3. Preparation of Cells with NanoBRET™ Tracer Reagent • 1). Remove medium from dish with transfected HEK-293 cells via aspiration, trypsinize and allow cells to dissociate from the dish. • 2). Neutralize trypsin using medium containing serum and centrifuge at 200× g for 5 minutes to pellet the cells. Adjust the cell density to 2×10^5 cells/mL in Opti-MEM™ without phenol red. • 3). Prepare Complete 20× NanoBRET™ Tracer Reagent with Tracer Dilution Buffer. • 4). Dispense one part of Complete 20× NanoBRET™ Tracer Reagent to 20 parts of cells in the tube. Mix gently by inversion 10 times. • 5). […]

For a further assay, the target named is AKT (Homo sapiens, UniProt P31749). Briefly: RBC HotSpot kinase assay (33P-ATP, P81 filter-binding), AKT. The following applies: Table 28, biochemical kinase assay; read-out: AKT IC50. Format: biochemical. In short, it runs like this: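 Hepes pH 7.5/MgCl2/EGTA/Brij35/BSA/Na3VO4/DTT buffer, cofactors per kinase; cpd acoustically dispensed, 20 min preinc RT; start w/ 33P-ATP, 2 h RT; P81 filter readout; 10-pt singlet IC50.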

We go through 20 molecules from patent US20250361230A1, “LATS Inhibitors and Uses Thereof” (The USA, as Represented by the Secretary, Dept. of Heath …, priority 2022, published 2025).

Sequence of AKT (P31749 whole entry): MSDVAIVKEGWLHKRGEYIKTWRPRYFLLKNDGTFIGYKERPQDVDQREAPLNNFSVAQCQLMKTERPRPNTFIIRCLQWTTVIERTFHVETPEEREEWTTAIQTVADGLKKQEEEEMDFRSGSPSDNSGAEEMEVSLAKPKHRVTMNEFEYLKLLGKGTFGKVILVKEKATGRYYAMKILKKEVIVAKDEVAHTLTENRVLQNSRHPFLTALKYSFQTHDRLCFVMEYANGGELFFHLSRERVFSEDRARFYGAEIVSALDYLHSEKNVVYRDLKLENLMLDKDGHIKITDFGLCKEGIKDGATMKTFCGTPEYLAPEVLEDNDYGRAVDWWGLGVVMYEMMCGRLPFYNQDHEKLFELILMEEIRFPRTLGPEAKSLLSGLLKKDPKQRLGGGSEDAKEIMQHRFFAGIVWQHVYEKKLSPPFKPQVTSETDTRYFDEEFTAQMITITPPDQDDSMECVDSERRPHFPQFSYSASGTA
T1 sequence (P31749 whole entry, the tested form may be a part): as the sequence (P31749 whole entry) above

The IC50 is the concentration needed to halve the response being measured. On to `C[C@@H]1CNC[C@H](C)[C@@]1(O)c1ccc(-c2ccnc3[nH]cc(F)c23)cc1Cl` [Compound 1, (3S,4S,5R)-4-(2-chloro-4-(3-fluoro-1H-pyrrolo[2,3-b]pyridin-4-yl)phenyl)-3,5-dimethylpiperidin-4-ol], for which the IC50 in assay [1] was determined as 21.2 µM; on AKT, 0.0154 µM. Consider `C[C@@H]1CNC[C@H](C)[C@@]1(O)c1ccc(-c2ccnc3[nH]cc(F)c23)cc1` [Compound 2, (3R,4s,5S)-4-(4-(3-fluoro-1H-pyrrolo[2,3-b]pyridin-4-yl)phenyl)-3,5-dimethylpiperidin-4-ol], for which the IC50 was above 50 µM in assay [1] and 0.147 µM at AKT. With `C[C@@H]1CNC[C@H](C)[C@@]1(O)c1ccc(-c2ccnc3[nH]cc(F)c23)cc1F` [Compound 7, (3S,4s,5R)-4-(2-fluoro-4-(3-fluoro-1H-pyrrolo[2,3-b]pyridin-4-yl)phenyl)-3,5-dimethyl piperidin-4-ol], the results for the IC50 (in assay [1]; at AKT) were 8.64 µM and 0.192 µM, respectively.

On to `C[C@@H]1CNC[C@H](C)[C@@]1(O)c1ccc(-c2ccnc3[nH]cc(F)c23)nc1` [Compound 8, (3S,4s,5R)-4-(6-(3-fluoro-1H-pyrrolo[2,3-b]pyridin-4-yl)pyridin-3-yl)-3,5-dimethylpiperidin-4-ol], for which the results for the 50% inhibitory concentration (IC50) (in assay [1]; on AKT) were 8.64 µM and 3.33 µM, respectively.

For the molecule `Cc1cc(-c2ccnc3[nH]cc(F)c23)ccc1[C@@]1(O)[C@H](C)CNC[C@@H]1C` [Compound 9, (3S,4s,5R)-4-(4-(3-fluoro-1H-pyrrolo[2,3-b]pyridin-4-yl)-2-methylphenyl)-3,5-dimethylpiperidin-4-ol], the IC50 in assay [1] amounted to 15.2 µM; on AKT, 0.0892 µM.

For `C[C@@H]1CNC[C@H](C)[C@@]1(O)c1c(F)cc(-c2ccnc3[nH]cc(F)c23)cc1F` [Compound 13], the IC50 in assay [1] was 16.1 µM; on AKT, 0.362 µM. `C[C@@H]1CNC[C@H](C)[C@@]1(O)c1ccc(-c2ccnc3[nH]cc(F)c23)cc1OC(F)(F)F` [Compound 14, (3S,4s,5R)-4-(4-(3-fluoro-1H-pyrrolo[2,3-b]pyridin-4-yl)-2-(trifluoromethoxy)phenyl)-3,5-dimethylpiperidin-4-ol]: the IC50 in assay [1] was determined as 4.95 µM; at AKT it was 0.112 µM. On the same counts, the results for `C[C@@H]1CN(Cc2ccccn2)C[C@H](C)[C@@]1(O)c1c(F)cc(-c2ccnc3[nH]cc(F)c23)cc1F` [Compound 17, (3S,4s,5R)-4-(2,6-difluoro-4-(3-fluoro-1H-pyrrolo[2,3-b]pyridin-4-yl)phenyl)-3,5-dimethyl-1-(pyridin-2-ylmethyl)piperidin-4-ol] are 24.1 µM and 1.07 µM. On the same counts, the results for `C[C@@H]1CN(C)C[C@H](C)[C@@]1(O)c1cnc(-c2ccnc3[nH]cc(F)c23)cc1Cl` [Compound 22, (3S,4s,5R)-4-(4-chloro-6-(3-fluoro-1H-pyrrolo[2,3-b]pyridin-4-yl)pyridin-3-yl)-1,3,5-trimethylpiperidin-4-ol] are 2.51 µM and 0.505 µM. For `Cc1cc(-c2ccnc3[nH]cc(F)c23)ccc1[C@@]1(O)[C@H](C)CN(C2COC2)C[C@@H]1C` [Compound 24, (3S,4s,5R)-4-(4-(3-fluoro-1H-pyrrolo[2,3-b]pyridin-4-yl)-2-methylphenyl)-3,5-dimethyl-1-(oxetan-3-yl)piperidin-4-ol], the figures for the 50% inhibitory concentration (IC50) (in assay [1]; at AKT) were 56.2 µM and 0.374 µM, respectively. For `Cc1cc(-c2ccnc3[nH]cc(F)c23)ccc1[C@@]1(O)[C@H](C)CN(C(C)C)C[C@@H]1C` [Compound 29, (3S,4s, 5R)-4-(4-(3-fluoro-1H-pyrrolo[2,3-b]pyridin-4-yl)-2-methylphenyl)-1-isopropyl-3,5-dimethylpiperidin-4-ol], the IC50 in assay [1] was 17 µM; on AKT, 0.0435 µM.

On to `Cc1cc(-c2ccnc3[nH]cc(F)c23)cc(F)c1C1(O)[C@H](C)CN(C2COC2)C[C@@H]1C` (stereo partly drawn) [Compound 30, (3S,5R)-4-(2-fluoro-4-(3-fluoro-1H-pyrrolo[2,3-b]pyridin-4-yl)-6-methylphenyl)-3,5-dimethyl-1-(oxetan-3-yl)piperidin-4-ol], for which the values for the IC50 (in assay [1]; on AKT) were above 30 µM and 0.698 µM, respectively. On to `C[C@@H]1CN(C2CCS(=O)(=O)CC2)C[C@H](C)C1(O)c1c(F)cc(-c2ccnc3[nH]cc(F)c23)cc1F` (stereo partly drawn) [Compound 31, 4-((3S,5R)-4-(2,6-difluoro-4-(3-fluoro-1H-pyrrolo[2,3-b]pyridin-4-yl)phenyl)-4-hydroxy-3,5-dimethylpiperidin-1-yl)tetrahydro-2H-thiopyran 1,1-dioxide], for which the half-inhibitory concentration (IC50) is 39.4 µM in assay [1] and 0.129 µM at AKT. In the case of `C[C@@H]1CN(C)C[C@H](C)[C@@]1(O)c1ccc(-c2ccnc3[nH]cc(F)c23)cc1` [Compound 39, (3R,4s,5S)-4-(4-(3-fluoro-1H-pyrrolo[2,3-b]pyridin-4-yl)phenyl)-1,3,5-trimethylpiperidin-4-ol], the IC50 in assay [1] is above 50 µM; on AKT it was 0.213 µM. With `C[C@@H]1CN(C)C[C@H](C)[C@@]1(O)c1ccc(-c2ccnc3[nH]cc(F)c23)nc1` [Compound 41, (3R,4s,5S)-4-(6-(3-fluoro-1H-pyrrolo[2,3-b]pyridin-4-yl)pyridin-3-yl)-1,3,5-trimethylpiperidin-4-ol], the half-maximal inhibitory concentration (IC50) in assay [1] came to 8.64 µM; on AKT it was 4.14 µM. For `C[C@@H]1CN(C2COC2)C[C@H](C)[C@@]1(O)c1c(F)cc(-c2ccnc3[nH]cc(F)c23)cc1F` [Compound 45, (3S,4s,5R)-4-(2,6-difluoro-4-(3-fluoro-1H-pyrrolo[2,3-b]pyridin-4-yl)phenyl)-3, S-dimethyl-1-(oxetan-3-yl)piperidin-4-ol], the values for the IC50 (in assay [1]; on AKT) were above 30 µM and 1.17 µM, respectively. As to `C[C@@H]1CN(C2CCC2)C[C@H](C)[C@@]1(O)c1c(F)cc(-c2ccnc3[nH]cc(F)c23)cc1F` [Compound 46, (3R,4s,5S)-1-cyclobutyl-4-(2,6-difluoro-4-(3-fluoro-1H-pyrrolo[2,3-b]pyridin-4-yl)phenyl)-3,5-dimethylpiperidin-4-ol], the 50% inhibitory concentration (IC50) in assay [1] was 31.5 µM; on AKT, 0.358 µM. In the case of `Cc1cc(-c2ccnc3[nH]cc(F)c23)ncc1[C@@]1(O)[C@H](C)CN(C2CCC2)C[C@@H]1C` [Compound 48, (3R,4s,5S)-1-cyclobutyl-4-(6-(3-fluoro-1H-pyrrolo[2,3-b]pyridin-4-yl)-4-methylpyridin-3-yl)-3,5-dimethylpiperidin-4-ol], on AKT, the IC50 was 6.11 µM.

As to `Cc1cc(-c2ccnc3[nH]cc(F)c23)ncc1[C@@]1(O)[C@H](C)CN(C2CCS(=O)(=O)CC2)C[C@@H]1C` [Compound 51, 4-((3R,4s,5S)-4-(6-(3-fluoro-1H-pyrrolo[2,3-b]pyridin-4-yl)-4-methylpyridin-3-yl)-4-hydroxy-3,5-dimethylpiperidin-1-yl)tetrahydro-2H-thiopyran 1,1-dioxide], the figures for the IC50 (in assay [1]; at AKT) were above 30 µM and above 10 µM, respectively. With `Cc1cc(-c2ccnc3[nH]cc(F)c23)ccc1[C@@]1(O)[C@H](C)CN(C2CCC2)C[C@@H]1C` [Compound 54, (3R,4s,5S)-1-cyclobutyl-4-(4-(3-fluoro-1H-pyrrolo[2,3-b]pyridin-4-yl)-2-methylphenyl)-3,5-dimethylpiperidin-4-ol], the IC50 in assay [1] came out at 2.97 µM; on AKT it was 0.051 µM.
